Measurements reported in patent US6855843B2, “Inhibitors of α4 mediated cell adhesion” (Tanabe Seiyaku Co., Ltd., priority 1998, dated 2005).

Assays:
[1] = molecular target: T1, α4β7 (adhesion of RPMI cells to CS-1) (Homo sapiens, UniProt P13612+P26010); test: RPMI-CS-1 cell adhesion assay; assay type: cell-based; conditions: adhesion of RPMI B-cell line (expresses α4β7) to CS-1 peptide coated microwells; read-out: RPMI-CS-1 IC50 value range
T1 construct: endogenous in cells
T1 sequence (P13612 34-1032): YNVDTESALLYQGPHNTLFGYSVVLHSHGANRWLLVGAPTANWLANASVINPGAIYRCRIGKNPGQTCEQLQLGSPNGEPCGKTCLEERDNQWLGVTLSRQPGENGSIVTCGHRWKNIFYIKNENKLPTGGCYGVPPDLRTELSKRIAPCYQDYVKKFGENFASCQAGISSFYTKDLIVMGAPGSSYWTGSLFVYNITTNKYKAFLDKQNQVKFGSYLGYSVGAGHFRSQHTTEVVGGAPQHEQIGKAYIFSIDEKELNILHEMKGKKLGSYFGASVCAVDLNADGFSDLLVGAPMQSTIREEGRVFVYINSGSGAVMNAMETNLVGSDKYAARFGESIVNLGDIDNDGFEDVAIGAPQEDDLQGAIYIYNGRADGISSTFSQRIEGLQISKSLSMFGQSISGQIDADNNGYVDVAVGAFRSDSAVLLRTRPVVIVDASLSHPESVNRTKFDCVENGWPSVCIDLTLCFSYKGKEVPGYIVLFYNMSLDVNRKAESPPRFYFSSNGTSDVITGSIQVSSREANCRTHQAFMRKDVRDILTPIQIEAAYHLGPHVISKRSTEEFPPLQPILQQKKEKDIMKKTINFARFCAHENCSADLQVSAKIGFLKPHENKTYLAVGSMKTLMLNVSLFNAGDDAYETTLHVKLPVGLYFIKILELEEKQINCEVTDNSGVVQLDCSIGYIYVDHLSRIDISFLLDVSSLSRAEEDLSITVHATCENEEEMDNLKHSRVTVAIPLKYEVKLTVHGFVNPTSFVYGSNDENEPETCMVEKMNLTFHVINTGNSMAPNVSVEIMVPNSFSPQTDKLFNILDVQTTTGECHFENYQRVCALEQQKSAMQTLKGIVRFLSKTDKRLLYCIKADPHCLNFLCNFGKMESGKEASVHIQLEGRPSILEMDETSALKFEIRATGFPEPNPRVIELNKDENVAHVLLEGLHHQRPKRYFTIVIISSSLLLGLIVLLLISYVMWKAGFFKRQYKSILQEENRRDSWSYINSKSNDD
T1 sequence (P26010 20-798): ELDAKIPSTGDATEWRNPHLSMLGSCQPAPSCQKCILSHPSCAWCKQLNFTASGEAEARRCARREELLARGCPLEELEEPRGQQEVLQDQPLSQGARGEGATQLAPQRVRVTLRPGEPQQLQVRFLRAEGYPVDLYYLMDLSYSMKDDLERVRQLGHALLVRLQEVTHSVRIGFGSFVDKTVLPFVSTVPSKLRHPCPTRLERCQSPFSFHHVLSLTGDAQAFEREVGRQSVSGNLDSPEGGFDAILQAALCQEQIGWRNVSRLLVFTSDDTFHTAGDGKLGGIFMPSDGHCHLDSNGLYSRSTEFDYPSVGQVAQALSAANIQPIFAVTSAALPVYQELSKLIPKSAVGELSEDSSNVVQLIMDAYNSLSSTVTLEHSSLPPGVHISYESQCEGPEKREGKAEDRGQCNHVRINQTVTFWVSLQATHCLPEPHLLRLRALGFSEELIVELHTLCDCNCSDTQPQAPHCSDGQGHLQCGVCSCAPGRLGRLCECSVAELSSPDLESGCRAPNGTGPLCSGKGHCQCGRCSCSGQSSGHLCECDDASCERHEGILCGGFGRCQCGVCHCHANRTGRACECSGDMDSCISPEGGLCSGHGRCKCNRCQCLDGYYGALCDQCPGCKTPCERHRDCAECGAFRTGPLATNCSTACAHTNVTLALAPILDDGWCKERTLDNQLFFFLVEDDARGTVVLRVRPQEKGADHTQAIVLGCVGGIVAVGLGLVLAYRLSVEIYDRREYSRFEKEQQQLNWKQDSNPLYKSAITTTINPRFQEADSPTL

SMILES | melting point | IC50 [1]
COc1ccc(C(N)=O)c(OC)c1-c1ccc(C[C@H](NC(=O)c2c(Cl)cccc2Cl)C(=O)O)cc1 [Example 326, N-(2,6-Dichlorobenzoyl)-4-(2,6-dimethoxy-3-carbamoylphenyl)-L-phenylalanine] | 227 to 228 °C | < 300 nM
COc1ccc(OC)c(-c2ccc(C[C@H](NC(=O)c3c(Cl)cccc3Cl)C(=O)O)cc2C(C)O)c1OC (stereo partly drawn) [Example 340] | 121 to 123 °C | < 300 nM
COc1ccccc1-c1ccc(C[C@H](NC(=O)c2c(Cl)cccc2Cl)C(=O)O)cc1OC [Example 75, N-(2,6-Dichlorobenzoyl)-3-methoxy-4-(2-methoxyphenyl)-L-phenylalanine] | 100 to 102 °C | < 300 nM
O=C(N[C@@H](Cc1ccc(-c2cccc3c2OCC3)cc1)C(=O)O)c1c(Cl)cccc1Cl [Example 327] | 215 to 216 °C | < 300 nM
COc1cccc(OC)c1-c1ccc(C[C@H](NC(=O)c2c(Cl)cc(NS(=O)(=O)c3cccs3)cc2Cl)C(=O)O)cc1 [Example 193, N-[2,6-Dichloro-4-[(2-thienylsulfonyl)amino]benzoyl]-4-(2,6-dimethoxyphenyl)-L-phenylalanine] | 141 to 142 °C | < 300 nM
COc1cc(C(F)(F)F)cc(OC)c1-c1ccc(C[C@H](NC(=O)c2c(Cl)cccc2Cl)C(=O)O)cc1 [Example 321, N-(2,6-Dichlorobenzoyl)-4-[2,6-dimethoxy-4-(trifluoromethyl)phenyl]-L-phenylalanine] | 231 to 232 °C | < 300 nM
COc1cc(C(=O)NCCCO)cc(OC)c1-c1ccc(C[C@H](NC(=O)c2c(Cl)cccc2Cl)C(=O)O)cc1 [Example 169] | 222 to 223 °C | < 300 nM
COc1cc(C(=O)NC(C)C)cc(OC)c1-c1ccc(C[C@H](NC(=O)c2c(Cl)cccc2Cl)C(=O)O)cc1 [Example 168] | 261 to 262 °C | < 300 nM
CNC(=S)Nc1cc(OC)c(-c2ccc(C[C@H](NC(=O)c3c(Cl)cccc3Cl)C(=O)O)cc2)c(OC)c1 [Example 162, N-(2,6-Dichlorobenzoyl)-4-[2,6-dimethoxy-4-(3-methylthioureido)phenyl]-L-phenylalanine] | 197 to 198 °C | < 300 nM
O=C(N[C@@H](Cc1ccc(-c2c(OCCO)cccc2OCCO)cc1)C(=O)O)c1c(Cl)cccc1Cl [Example 229] | 124 to 125 °C | < 300 nM
CC(O)c1cc(C[C@H](NC(=O)c2c(Cl)cccc2Cl)C(=O)O)ccc1-c1ccccc1 (stereo partly drawn) [Example 74, N-(2,6-Dichlorobenzoyl)-3-(1-hydroxyethyl)-4-phenyl-L-phenylalanine] | 115 to 117 °C | 300 to 1000 nM
COc1cccc(OCCO)c1-c1ccc(C[C@H](NC(=O)c2c(Cl)cccc2Cl)C(=O)O)cc1 [Example 227, N-(2,6-Dichlorobenzoyl)-4-[6-methoxy-2-(2-hydroxyethoxy)phenyl]-L-phenylalanine] | 158 to 159 °C | < 300 nM
COc1cccc(OC)c1-c1ccc(C[C@H](NC(=O)c2c(Cl)cc(NC(=O)Nc3ccccc3C)cc2Cl)C(=O)O)cc1 [Example 202] | 182 to 184 °C | < 300 nM
CCC(=O)c1cc(C[C@H](NC(=O)c2c(Cl)cccc2Cl)C(=O)O)ccc1-c1ccccc1OC [Example 337] | 118 to 119 °C | < 300 nM
COc1ccccc1-c1ccc(C[C@H](NC(=O)C(C)c2c(Cl)cccc2Cl)C(=O)O)cc1 (stereo partly drawn) [Example 213, N-[2-(2,6-Dichlorophenyl)propionyl]-4-(2-methoxyphenyl)-L-phenylalanine] | 109 to 110 °C | 1000 to 5000 nM
COc1cccc(OC)c1-c1ccc(CC[C@H](NC(=O)c2c(Cl)cccc2Cl)C(=O)O)cc1 [Example 295, N-(2,6-Dichlorobenzoyl)-4-(2,6-dimethoxyphenyl)-L-homophenylalanine] | 105 to 107 °C | 1000 to 5000 nM
CC(C)(C)OC(=O)n1cccc1-c1ccc(C[C@H](NC(=O)c2c(Cl)cccc2Cl)C(=O)O)cc1 [Example 329, N-(2,6-Dichlorobenzoyl)-4-(1-tert-butoxycarbonyl-2-pyrrolyl)-L-phenylalanine] | 98 to 99 °C | 1000 to 5000 nM
COc1cc(C(=O)NCc2ccccc2)cc(OC)c1-c1ccc(C[C@H](NC(=O)c2c(Cl)cccc2Cl)C(=O)O)cc1 [Example 167] | 153 to 154 °C | < 300 nM
C=CCNc1cc(OC)c(-c2ccc(C[C@H](NC(=O)c3c(Cl)cccc3Cl)C(=O)O)cc2)c(OC)c1 [Example 156, N-(2,6-Dichlorobenzoyl)-4-(4-allylamino-2,6-dimethoxyphenyl)-L-phenylalanine] | 262 to 263 °C (dec.) | < 300 nM

The remaining lines, values ahead:

melting point | IC50 [1] | SMILES
200 to 201 °C | 1000 to 5000 nM | Cc1cccc(C)c1-c1ccc(C[C@H](NC(=O)c2c(Cl)cccc2Cl)C(=O)O)cc1 [Example 145]
118 to 120 °C | < 300 nM | COc1cccc(OC)c1-c1ccc(C[C@H](NC(=O)c2c(Cl)cccc2Cl)C(=O)O)cc1NS(C)(=O)=O [Example 298]
250 °C | < 300 nM | COc1cccc(OC)c1-c1ccc(C[C@H](NC(=O)c2c(Cl)cc(-c3ccc[nH]3)cc2Cl)C(=O)O)cc1 [Example 303, N-[4-(2-Pyrrolyl)-2,6-dichlorobenzoyl]-4-(2,6-dimethoxyphenyl)-L-phenylalanine]
142 to 144 °C | < 300 nM | COc1cccc(OC)c1-c1ccc(C[C@H](NC(=O)c2c(Cl)cccc2Cl)C(=O)O)cc1NC(C)=O [Example 297, N-(2,6-Dichlorobenzoyl)-4-(2,6-dimethoxyphenyl)-3-acetylamino-L-phenylalanine]
186.5 °C | < 300 nM | COc1cccc(OC)c1-c1ccc(C[C@H](NC(=O)c2c(Cl)cc(-c3cscn3)cc2Cl)C(=O)O)cc1 [Example 307, N-[4-(1,3-Thiazol-4-yl)-2,6-dichlorobenzoyl]-4-(2,6-dimethoxyphenyl)-L-phenylalanine]
236 to 237 °C | < 300 nM | CNC(=O)Nc1ccc(OC)c(-c2ccc(C[C@H](NC(=O)c3c(Cl)cccc3Cl)C(=O)O)cc2)c1OC [Example 324, N-(2,6-Dichlorobenzoyl)-4-[2,6-dimethoxy-3-(methylureido)phenyl]-L-phenylalanine]
147 to 149 °C | < 300 nM | COC(=O)Nc1cc(Cl)c(C(=O)N[C@@H](Cc2ccc(-c3c(OC)cccc3OC)cc2)C(=O)O)c(Cl)c1 [Example 201]
117 to 119 °C | < 300 nM | CCC(O)c1cc(C[C@H](NC(=O)c2c(Cl)cccc2Cl)C(=O)O)ccc1-c1ccccc1OC (stereo partly drawn) [Example 341]
105 to 107 °C | < 300 nM | CCc1cc(C[C@H](NC(=O)c2c(Cl)cccc2Cl)C(=O)O)ccc1-c1ccccc1OC [Example 296, N-(2,6-Dichlorobenzoyl)-3-ethyl-4-(2-methoxyphenyl)-L-phenylalanine]
114 to 115 °C | < 300 nM | COc1c(C)c(OC)c(-c2ccc(C[C@H](NC(=O)c3c(Cl)cccc3Cl)C(=O)O)cc2)c(OC)c1C [Example 147]
155 to 156 °C | < 300 nM | CCNC(=S)Nc1ccc(C(=O)N[C@@H](Cc2ccc(-c3ccccc3OC)cc2)C(=O)O)c(Cl)c1 [Example 196]
